Experiment [1] concerns the target T1, GHSR1a (Homo sapiens, UniProt Q92847).
T1 construct: expressed in transfected cells; host or cells: HEK293
As to the kind of experiment: Calcium FLIPR assay, GHSR-1a antagonism (reduction of ghrelin response). It is filed as cell-based. The following applies: HEK293/GHSR1a cells, ghrelin 10 nM. In a few lines:
(§1)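 Calcium dye-loaded HEK293/GHSR1a cells were monitored by FLIPR fluorescence for 2 min after additions at t=20 s. For antagonist mode, compound was co-added with ghrelin (10 nM) and scored by lowering the ghrelin signal. Agonist mode added compound alone; EC50 and IC50 came from dose-response data.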

In experiment [2] the target is T1, GHSR1a. As to the kind of experiment: Calcium FLIPR assay, GHSR-1a agonism. The conditions noted are these: HEK293/GHSR1a cells. More on the design: Emax: unit not given here. It is filed as cell-based. In a few lines:
as §1

For 28 compounds, IC50, EC50 and Emax results are on record in patent US9546157B2, “Asymmetric piperidinyl-substituted ureas as medicines” (Helsinn Healthcare SA, priority 2014, dated 2017).

Molecules are shown by their SMILES. pEC50, pIC50: −log10 of the molar value. Bounds are passed on as bounds.

T1 sequence (Q92847 whole entry): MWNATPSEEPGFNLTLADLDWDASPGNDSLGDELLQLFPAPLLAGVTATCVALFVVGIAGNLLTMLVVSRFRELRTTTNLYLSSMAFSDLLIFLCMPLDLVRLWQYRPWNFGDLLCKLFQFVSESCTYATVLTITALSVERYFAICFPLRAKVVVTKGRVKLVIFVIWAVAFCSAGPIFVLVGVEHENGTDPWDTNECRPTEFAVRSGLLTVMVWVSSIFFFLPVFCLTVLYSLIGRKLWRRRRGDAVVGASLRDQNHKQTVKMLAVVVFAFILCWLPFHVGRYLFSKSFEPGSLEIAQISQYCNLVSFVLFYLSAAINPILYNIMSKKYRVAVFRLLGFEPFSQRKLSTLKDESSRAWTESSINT

As a reminder, the pIC50 is the negative decadic logarithm of the IC50, by convention in mol/L. By pEC50 is commonly meant the EC50 on a negative log10 scale, so that one unit is a factor of ten. On to `COc1ncc(-c2ccc(C(C)NC(=O)N(C)C3CCN(C)CC3)c(Cl)c2Cl)c(OC)n1` (centres unmarked) [Compound H0663, 3-(1-(2,3-dichloro-4-(2,4-dimethoxypyrimidin-5-yl)phenyl)ethyl)-1-methyl-1-(1-methylpiperidin-4-yl)urea], for which the pIC50 in experiment [1] was 6.56. For the same compound, the pEC50 in experiment [2] was below 4.52.
Take `CC(NC(=O)N(C)C1CCN(C)CC1)c1ccc(C#N)c(Cl)c1Cl` (centres unmarked) [Compound H0523, 3-(1-(2,3-dichloro-4-cyanophenyl)ethyl)-1-methyl-1-(1-methylpiperidin-4-yl)urea]: the pIC50 in experiment [1] was 6.18. The pEC50 in experiment [2] was below 4.52.
Turning to `CN1CCC(N(C)C(=O)NC(CO)c2ccc(-c3cnccn3)c(Cl)c2Cl)CC1` (centres unmarked) [Compound H0924, 3-(1-(2,3-dichloro-4-(pyrazin-2-yl)phenyl)-2-hydroxyethyl)-1-methyl-1-(1-methylpiperidin-4-yl)urea], in experiment [1], the pIC50 is 6.52. In experiment [2], the pEC50 was below 4.52.
Regarding `CC(NC(=O)N(C)C1CCN(C)CC1)c1ccc(-c2ccc(C(=O)N(C)C)s2)c(Cl)c1Cl` (centres unmarked) [Compound H0726, 5-(2,3-dichloro-4-(1-(3-methyl-3-(1-methylpiperidin-4-yl)ureido)ethyl)phenyl)-N,N-dimethylthiophene-2-carboxamide], in experiment [1], the pIC50 was 6.34. In experiment [2], the pEC50 was below 4.52.
`CC(NC(=O)N(C)C1CCN(C)CC1)c1ccc(-c2ccc(F)nc2)c(Cl)c1Cl` (centres unmarked) [Compound H0618, 3-(1-(2,3-dichloro-4-(6-fluoropyridin-3-yl)phenyl)ethyl)-1-methyl-1-(1-methylpiperidin-4-yl)urea]: in experiment [1], the pIC50 was 7.40. Moreover, the pEC50 in experiment [2] was 6.89.
In the case of `CC(NC(=O)N(C)C1CCN(C)CC1)c1ccc(-c2cncc(C3CC3)c2)c(Cl)c1Cl` (centres unmarked) [Compound H0765, 3-(1-(2,3-dichloro-4-(5-cyclopropylpyridin-3-yl)phenyl)ethyl)-1-methyl-1-(1-methylpiperidin-4-yl)urea], in experiment [1], the pIC50 is 7.21. Besides, in experiment [2], the pEC50 is 6.86 and the Emax came out at 2810.
Consider `CC(NC(=O)N(C)C1CCN(C)CC1)c1ccc(-c2ccc(N(C)C)cc2)c(Cl)c1Cl` (centres unmarked) [Compound H0518, 3-(1-(2,3-dichloro-4′-(dimethylamino)-[1,1′-biphenyl]-4-yl)ethyl)-1-methyl-1-(1-methylpiperidin-4-yl)urea], for which the pIC50 in experiment [1] is 6.08. Further, the pEC50 in experiment [2] is below 4.52.
Turning to `CC(NC(=O)N(C)C1CCN(C)CC1)c1ccc(-c2cn[nH]c2)c(Cl)c1F` (centres unmarked) [Compound H0571, 3-(1-(3-chloro-2-fluoro-4-(1H-pyrazol-4-yl)phenyl)ethyl)-1-methyl-1-(1-methylpiperidin-4-yl)urea], the negative-log IC50 (pIC50) in experiment [1] is 6.81. For the same compound, in experiment [2], the pEC50 is below 4.52.
Turning to `CC(NC(=O)N(C)C1CCN(C)CC1)c1ccc(-c2cncc(C(F)(F)F)n2)c(Cl)c1Cl` (centres unmarked) [Compound H0910, 3-(1-(2,3-dichloro-4-(6-(trifluoromethyl)pyrazin-2-yl)phenyl)ethyl)-1-methyl-1-(1-methylpiperidin-4-yl)urea], the pIC50 in experiment [1] is 6.90. Further, in experiment [2], the pEC50 was 7.72 and the Emax was 1359.
For `Cc1nccnc1-c1ccc(C(C)NC(=O)N(C)C2CCN(C)CC2)c(Cl)c1Cl` (centres unmarked) [Compound H0831, 3-(1-(2,3-dichloro-4-(3-methylpyrazin-2-yl)phenyl)ethyl)-1-methyl-1-(1-methylpiperidin-4-yl)urea], the pIC50 in experiment [1] is 5.92. The pEC50 in experiment [2] is below 4.52.
For `CC(NC(=O)N(C)C1CCC(F)(F)CC1)c1ccc(-c2cncnc2)c(Cl)c1Cl` (centres unmarked) [Compound H0587, 3-(1-(2,3-dichloro-4-(pyrimidin-5-yl)phenyl)ethyl)-1-(4,4-difluorocyclohexyl)-1-methylurea], the pIC50 in experiment [1] is below 4.52. Moreover, the pEC50 in experiment [2] is below 4.52.
Regarding `CC(NC(=O)N(C)C1CCN(C)CC1)c1ccc(Nc2cccs2)c(Cl)c1Cl` (centres unmarked) [Compound H0777, 3-(1-(2,3-dichloro-4-(thiophen-2-ylamino)phenyl)ethyl)-1-methyl-1-(1-methylpiperidin-4-yl)urea], in experiment [1], the pIC50 was 6.15. Besides, in experiment [2], the pEC50 is 6.22 and the Emax came to 2288.
Take `CCON(C(=O)NC(C)c1ccc(-c2cnccn2)c(Cl)c1Cl)C1CCN(C)CC1` (centres unmarked) [Compound H0750, 3-(1-(2,3-dichloro-4-(pyrazin-2-yl)phenyl)ethyl)-1-ethoxy-1-(1-methylpiperidin-4-yl)urea]: the pIC50 in experiment [1] was 6.75. Besides, the pEC50 in experiment [2] was below 4.52.
Turning to `CC(=O)N1CCC(N(C)C(=O)NC(C)c2ccc(-c3cncnc3)c(Cl)c2Cl)CC1` (centres unmarked) [Compound H0588, 1-(1-acetylpiperidin-4-yl)-3-(1-(2,3-dichloro-4-(pyrimidin-5-yl)phenyl)ethyl)-1-methylurea], in experiment [1], the pIC50 is below 4.52. Further, in experiment [2], the pEC50 was below 4.52.
With `CC(NC(=O)N(C)C1CCN(C)CC1)c1ccc(-c2cccc(F)c2)c(Cl)c1Cl` (centres unmarked) [Compound H0810, 3-(1-(2,3-dichloro-3′-fluoro-[1,1′-biphenyl]-4-yl)ethyl)-1-methyl-1-(1-methylpiperidin-4-yl)urea], the pIC50 in experiment [1] was 7.70. In experiment [2], the pEC50 is 7.66 and the Emax is 2339.
Consider `COC(=O)c1cncc(-c2ccc(C(C)NC(=O)N(C)C3CCN(C)CC3)c(Cl)c2Cl)n1` (centres unmarked) [Compound H0789, methyl 6-(2,3-dichloro-4-(1-(3-methyl-3-(1-methylpiperidin-4-yl)ureido)ethyl)phenyl)pyrazine-2-carboxylate], for which, in experiment [1], the negative logarithm of the IC50 (pIC50) is 6.55. Moreover, in experiment [2], the pEC50 was 7.59 and the Emax is recorded as 1137.
Regarding `COCc1cncc(-c2ccc(C(C)NC(=O)N(C)C3CCN(C)CC3)c(Cl)c2Cl)c1` (centres unmarked) [Compound H0708, 3-(1-(2,3-dichloro-4-(5-(methoxymethyl)pyridin-3-yl)phenyl)ethyl)-1-methyl-1-(1-methylpiperidin-4-yl)urea], the pIC50 in experiment [1] was 5.86. Moreover, in experiment [2], the pEC50 is below 4.52.
For `CC(NC(=O)N(C)C1CCN(C)CC1)c1ccc(-c2cnc(C#N)nc2)c(Cl)c1Cl` (centres unmarked) [Compound H0802, 3-(1-(2,3-dichloro-4-(2-cyanopyrimidin-5-yl)phenyl)ethyl)-1-methyl-1-(1-methylpiperidin-4-yl)urea], the pIC50 in experiment [1] was 7.00. Besides, in experiment [2], the pEC50 is 6.82 and the Emax is given as 4149.
Turning to `COc1ccc(C(C#N)NC(=O)N(C)C2CCN(C)CC2)c(Cl)c1Br` (centres unmarked) [Compound H0658, 3-((3-bromo-2-chloro-4-methoxyphenyl)(cyano)methyl)-1-methyl-1-(1-methylpiperidin-4-yl)urea], in experiment [1], the pIC50 was 8.22. Besides, in experiment [2], the pEC50 is 8.05 and the Emax worked out at 2400.
Regarding `C#Cc1ccc(C(CC2CC2)NC(=O)N(OCC)C2CCN(C)CC2)c(Cl)c1Cl` (centres unmarked) [Compound H0744, 3-(2-cyclopropyl-1-(2,3-dichloro-4-ethynylphenyl)ethyl)-1-ethoxy-1-(1-methylpiperidin-4-yl)urea], the pIC50 in experiment [1] was 7.48. Moreover, in experiment [2], the pEC50 was 7.35 and the Emax came out at 3536.
For the compound `CC(NC(=O)N(C)C1CCN(C)CC1)c1ccc(-c2cnc(N(C)C)nc2)c(Cl)c1Cl` (centres unmarked) [Compound H0804, 3-(1-(2,3-dichloro-4-(2-(dimethylamino)pyrimidin-5-yl)phenyl)ethyl)-1-methyl-1-(1-methylpiperidin-4-yl)urea], the pIC50 in experiment [1] is 6.43. In addition, in experiment [2], the pEC50 was 6.58 and the Emax stood at 2740.
`C[C@H](NC(=O)N(C)C1CCN(C)C1)c1ccc(-c2cnccn2)c(Cl)c1Cl` (single isomer, unassigned) [Compound H0861]: in experiment [1], the pIC50 was 6.72. Further, the pEC50 in experiment [2] was below 4.52.
As for `CCCN(C(=O)NC(C)c1ccc(-c2cnccn2)c(Cl)c1Cl)C1CCN(C)CC1` (centres unmarked) [Compound H0827, 3-(1-(2,3-dichloro-4-(pyrazin-2-yl)phenyl)ethyl)-1-(1-methylpiperidin-4-yl)-1-propylurea], the pIC50 in experiment [1] was 7.46. The pEC50 in experiment [2] is below 4.52.
As to `Cc1cc(-c2ccc(C(C)NC(=O)N(C)C3CCN(C)CC3)c(Cl)c2Cl)ncn1` (centres unmarked) [Compound H0808, 3-(1-(2,3-dichloro-4-(6-methylpyrimidin-4-yl)phenyl)ethyl)-1-methyl-1-(1-methylpiperidin-4-yl)urea], the pIC50 in experiment [1] is 6.17. Also, in experiment [2], the pEC50 was 7.05 and the Emax was 1494.
Consider `CC(NC(=O)N(C)C1CCN(C)CC1)c1ccc(-c2cnc(N)nc2)c(Cl)c1Cl` (centres unmarked) [Compound H0798, 3-(1-(4-(2-aminopyrimidin-5-yl)-2,3-dichlorophenyl)ethyl)-1-methyl-1-(1-methylpiperidin-4-yl)urea], for which the pIC50 in experiment [1] was 6.79. Further, in experiment [2], the pEC50 was below 4.52.
Turning to `C#Cc1ccc(C(CC2CC2)NC(=O)N(OC)C2CCN(C)CC2)c(Cl)c1Cl` (centres unmarked) [Compound H0740, 3-(2-cyclopropyl-1-(2,3-dichloro-4-ethynylphenyl)ethyl)-1-methoxy-1-(1-methylpiperidin-4-yl)urea], in experiment [1], the pIC50 was 8.15. In experiment [2], the pEC50 is 8.82 and the Emax stood at 3620.
Consider `CC(NC(=O)N(C)C1CCN(C)CC1)c1ccc(-c2nc(N3CCOCC3)nc(N3CCOCC3)n2)c(Cl)c1Cl` (centres unmarked) [Compound H0796, 3-(1-(2,3-dichloro-4-(4,6-dimorpholino-1,3,5-triazin-2-yl)phenyl)ethyl)-1-methyl-1-(1-methylpiperidin-4-yl)urea], for which the pIC50 in experiment [1] was 6.08. Besides, in experiment [2], the pEC50 was 5.52 and the Emax amounted to 1671.
Regarding `CC(NC(=O)N(C)C1CCN(C)CC1)c1ccc(-c2cncc(-c3ccoc3)c2)c(Cl)c1Cl` (centres unmarked) [Compound H0746, 3-(1-(2,3-dichloro-4-(5-(furan-3-yl)pyridin-3-yl)phenyl)ethyl)-1-methyl-1-(1-methylpiperidin-4-yl)urea], the pIC50 in experiment [1] was 6.67. Moreover, in experiment [2], the pEC50 was below 4.52.
